Results reported in patent publication US6355799B1, “Substituted benzene compounds, process for their preparation, and herbicidal and defoliant compositions containing them” (ISK Americas Incorporated, priority 1997, dated 2002).

Tests used:
Assay type in all cases: in vivo
[1] = tested on: sicklepod (Cassia obtusifolia, CASOB); test: Pre-emerge test, greenhouse herbicide activity screening; details: phytotoxicity rating 0-100, 14 days after application
Method in brief: (§1)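 Compounds in acetone were track-sprayed at 15–1000 g ai/ha: pre-emergence onto soil sown the previous day, then top-watered to incorporate and later bottom-watered; post-emergence onto 2–3 leaf plants with 0.25% v/v surfactant, bottom-watered only. Ratings on a 0–100 phytotoxicity scale were taken at day 14.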

[2] = tested on: large crabgrass (Digitaria sanguinalis, DIGSA); test: as above; details: phytotoxicity rating 0-100, 14 days after application
Method in brief: as §1

[3] = tested on: johnsongrass (Sorghum halepense, SORHA); test: as above; details: phytotoxicity rating 0-100, 14 days after application
Method in brief: as §1

[4] = tested on: lambsquarters (Chenopodium album, CHEAL); test: as above; details: phytotoxicity rating 0-100, 14 days after application
Method in brief: as §1

[5] = tested on: barnyardgrass (Echinochloa crus-galli, ECHCG); test: as above; details: phytotoxicity rating 0-100, 14 days after application
Method in brief: as §1

[6] = tested on: ivyleaf morningglory (Ipomoea hederacea, IPOHE); test: as above; details: phytotoxicity rating 0-100, 14 days after application
Method in brief: as §1

[7] = tested on: green foxtail (Setaria viridis, SETVI); test: as above; details: phytotoxicity rating 0-100, 14 days after application
Method in brief: as §1

[8] = tested on: velvetleaf (Abutilon theophrasti, ABUTH); test: as above; details: phytotoxicity rating 0-100, 14 days after application
Method in brief: as §1

[9] = tested on: field corn (Zea mays L., var. Dekalb 535, CORN); test: Pre-emerge test, crop safety; details: crop damage rating 0-100, 14 days after application
Method in brief: (§2)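 Compounds in acetone were track-sprayed at 15-1000 g ai/ha (187 l/ha) on sandy loam pots: pre-emerge one day after seeding, post-emerge at 2-3 leaf stage with 0.25% v/v non-ionic surfactant. Phytotoxicity was rated 14 days later on a 0 (no damage) to 100 (complete death) scale.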

[10] = tested on: upland rice (Oryza sp., var. Tebonnet, RICE); test: Pre-emerge test, crop safety; details: crop damage rating 0-100, 14 days after application
Method in brief: as §2

[11] = tested on: field corn (Zea mays L., var. Dekalb 535, CORN); test: Post-emerge test, crop safety; details: post-emerge, 14 days after application, rating scale 0-100
Method in brief: (§3)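 Rating: 0–100 visual injury, 14 DAA. Application: acetone, 187 l/ha, 15–1000 g ai/ha, flat-fan track sprayer with nozzle 40–45 cm above soil or canopy. Post-emerge runs used 0.25% v/v surfactant on 2–3 leaf plants.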

[12] = tested on: upland rice (Oryza sp., var. Tebonnet, RICE); test: Post-emerge test, crop safety; details: post-emerge, 14 days after application, rating scale 0-100
Method in brief: as §3

[13] = tested on: redroot pigweed (Amaranthus retroflexus, AMARE); test: Pre-emerge test, greenhouse herbicide activity screening; details: phytotoxicity rating 0-100, 14 days after application
Method in brief: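 Sandy loam pots; pre-emerge: sown 1 d pre-spray, surface-watered after, then bottom-watered. Post-emerge: sown 8–21 d before, 2–3 leaf stage, + 0.25% v/v NIS, bottom-watered. Acetone, 187 l/ha track spray, 15–1000 g ai/ha. 0–100 injury score, day 14.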

[14] = tested on: sicklepod (Cassia obtusifolia, CASOB); test: Post-emerge test, greenhouse herbicide activity screening; details: post-emerge, 14 days after application, rating scale 0-100
Method in brief: (§4)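 Fourteen days after spraying, crop and weed injury was graded visually from 0, no effect, to 100, every plant dead. Test substances were dissolved in acetone and applied at 15–1000 g ai/ha with a flat-fan nozzle. Application was either pre-emergence, one day after sowing, or post-emergence at the 2–3 leaf stage.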

[15] = tested on: large crabgrass (Digitaria sanguinalis, DIGSA); test: as above; details: post-emerge, 14 days after application, rating scale 0-100
Method in brief: as §4

[16] = tested on: johnsongrass (Sorghum halepense, SORHA); test: as above; details: post-emerge, 14 days after application, rating scale 0-100
Method in brief: as §4

[17] = tested on: redroot pigweed (Amaranthus retroflexus, AMARE); test: as above; details: post-emerge, 14 days after application
Method in brief: as §4

[18] = tested on: lambsquarters (Chenopodium album, CHEAL); test: as above; details: post-emerge, 14 days after application, rating scale 0-100
Method in brief: as §4

[19] = tested on: barnyardgrass (Echinochloa crus-galli, ECHCG); test: as above; details: post-emerge, 14 days after application, rating scale 0-100
Method in brief: as §4

[20] = tested on: ivyleaf morningglory (Ipomoea hederacea, IPOHE); test: as above; details: post-emerge, 14 days after application, rating scale 0-100
Method in brief: as §4

[21] = tested on: green foxtail (Setaria viridis, SETVI); test: as above; details: post-emerge, 14 days after application, rating scale 0-100
Method in brief: as §4

[22] = tested on: velvetleaf (Abutilon theophrasti, ABUTH); test: as above; details: post-emerge, 14 days after application, rating scale 0-100
Method in brief: as §4

## COc1c(Cl)cc(F)c(-n2c(=O)cc(C(F)(F)F)n(C)c2=O)c1NC(=O)OCc1ccccc1[N+](=O)[O-] [4-34]
[1]; 63 g ai/ha
  Pre-emerge Herbicidal Activity CASOB: 40
[1]; 250 g ai/ha
  Pre-emerge Herbicidal Activity CASOB: 95
[2]; 63 g ai/ha
  Pre-emerge Herbicidal Activity DIGSA: 90
[2]; 250 g ai/ha
  Pre-emerge Herbicidal Activity DIGSA: 95
[3]; 63 g ai/ha
  Pre-emerge Herbicidal Activity SORHA: 40
[3]; 250 g ai/ha
  Pre-emerge Herbicidal Activity SORHA: 80
[4]; 63 g ai/ha
  Pre-emerge Herbicidal Activity CHEAL: 100
[4]; 250 g ai/ha
  Pre-emerge Herbicidal Activity CHEAL: 100
[5]; 63 g ai/ha
  Pre-emerge Herbicidal Activity ECHCG: 50
[5]; 250 g ai/ha
  Pre-emerge Herbicidal Activity ECHCG: 90
[6]; 63 g ai/ha
  Pre-emerge Herbicidal Activity IPOHE: 30
[6]; 250 g ai/ha
  Pre-emerge Herbicidal Activity IPOHE: 80
[7]; 63 g ai/ha
  Pre-emerge Herbicidal Activity SETVI: 80
[7]; 250 g ai/ha
  Pre-emerge Herbicidal Activity SETVI: 100
[8]; 63 g ai/ha
  Pre-emerge Herbicidal Activity ABUTH: 100
[8]; 250 g ai/ha
  Pre-emerge Herbicidal Activity ABUTH: 100
[9]; 63 g ai/ha
  Pre-emerge Herbicidal Activity CORN: 10
[9]; 250 g ai/ha
  Pre-emerge Herbicidal Activity CORN: 90
[10]; 63 g ai/ha
  Pre-emerge Herbicidal Activity RICE: 50
[10]; 250 g ai/ha
  Pre-emerge Herbicidal Activity RICE: 95
[11]; 63 g ai/ha
  phytotoxicity rating CORN (crop damage): 25
[11]; 250 g ai/ha
  phytotoxicity rating CORN (crop damage): 50
[12]; 63 g ai/ha
  phytotoxicity rating RICE (crop damage): 40
[12]; 250 g ai/ha
  phytotoxicity rating RICE (crop damage): 80
[13]; 63 g ai/ha
  Pre-emerge Herbicidal Activity AMARE: 100
[13]; 250 g ai/ha
  Pre-emerge Herbicidal Activity AMARE: 100
[14]; 63 g ai/ha
  phytotoxicity rating CASOB: 90
[14]; 250 g ai/ha
  phytotoxicity rating CASOB: 100
[15]; 63 g ai/ha
  phytotoxicity rating DIGSA: 35
[15]; 250 g ai/ha
  phytotoxicity rating DIGSA: 60
[16]; 63 g ai/ha
  phytotoxicity rating SORHA: 30
[16]; 250 g ai/ha
  phytotoxicity rating SORHA: 30
[17]; 63 g ai/ha, rating scale 0-100 (0 no damage, 100 complete death)
  phytotoxicity rating AMARE: 100
[17]; 250 g ai/ha, rating scale 0-100
  phytotoxicity rating AMARE: 100
[18]; 63 g ai/ha
  phytotoxicity rating CHEAL: 100
[18]; 250 g ai/ha
  phytotoxicity rating CHEAL: 100
[19]; 63 g ai/ha
  phytotoxicity rating ECHCG: 20
[19]; 250 g ai/ha
  phytotoxicity rating ECHCG: 50
[20]; 63 g ai/ha
  phytotoxicity rating IPOHE: 100
[20]; 250 g ai/ha
  phytotoxicity rating IPOHE: 90
[21]; 63 g ai/ha
  phytotoxicity rating SETVI: 50
[21]; 250 g ai/ha
  phytotoxicity rating SETVI: 75
[22]; 63 g ai/ha
  phytotoxicity rating ABUTH: 100
[22]; 250 g ai/ha
  phytotoxicity rating ABUTH: 100
